This is an account of results in ChEMBL document CHEMBL1201862, “PubChem BioAssay data set” (2004).

Some test systems named below: COLO 205; EKVX; HCT-15; HOP-62; Hs-578T; MDA-MB-435; MOLT-4; NCI-H226; NCI-H23; NCI/ADR-RES; RPMI-8226; SK-MEL-2; SK-OV-3; SN12C; SR; SW-620; A498; CCRF-CEM; UACC-257.
Assay in all cases: NCI-60 cell line screen, 48 h

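Protocol summary: plate cells (96-well), add compound at 5 concentrations, incubate 48 h, interpolate endpoints linearly. GI50 is the concentration that inhibits growth by half.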 Activity calls are given as the source filed them. Cut-off read from the data, not from the text of the source: active = GI50 up to about 1.1 µM and inactive = higher.

Regarding `Cc1cnc2sn(-c3ccc([N+](=O)[O-])cc3)c(=O)c2c1`, the GI50 in the assay on COLO 205 is > 100 µM (inactive); in the assay with EKVX, 74.1 µM (inactive); in the assay on HCT-15, above 100 µM; with HOP-62 it was 14.9 µM (inactive); in the assay on Hs-578T, 53.5 µM (inactive); with MDA-MB-435, > 100 µM (inactive). For the same molecule, the GI50 was > 100 µM (inactive) with MOLT-4; > 100 µM (inactive) with NCI-H226; 42.9 µM (inactive) in the assay with NCI-H23; > 100 µM (inactive) in the assay with NCI/ADR-RES; > 100 µM (inactive) in the assay on RPMI-8226; 45.7 µM (inactive) in the assay with SK-MEL-2. The GI50 with SK-OV-3 is 29 µM (inactive); with SN12C it was > 100 µM (inactive); in the assay with SR it was > 100 µM (inactive); in the assay on SW-620, > 100 µM (inactive).
With `c1ccc2c(c1)Cn1c-2nc2ccccc21`, the GI50 in the assay on A498 is > 100 µM (inactive); with CCRF-CEM it was > 100 µM (inactive); in the assay on COLO 205, 98.4 µM (inactive); in the assay on EKVX, > 100 µM (inactive); in the assay on HCT-15 it was 94.4 µM; with HOP-62, > 100 µM (inactive). Besides, the GI50 in the assay with Hs-578T is > 100 µM (inactive); in the assay on MDA-MB-435, > 100 µM (inactive); with MOLT-4 it was 31.1 µM (inactive); in the assay on NCI-H226, 61.7 µM (inactive); with NCI-H23, > 100 µM (inactive); in the assay on NCI/ADR-RES, > 100 µM (inactive). Besides, the GI50 is 65 µM (inactive) in the assay on RPMI-8226; > 100 µM (inactive) in the assay on SK-MEL-2; > 100 µM (inactive) with SK-OV-3; > 100 µM (inactive) in the assay on SN12C; > 100 µM (inactive) with SW-620; > 100 µM (inactive) in the assay with UACC-257.
Take `CCOC(=O)CSc1nc(-c2ccc(Cl)cc2)c(C#N)c(=O)[nH]1`: the GI50 was > 100 µM (inactive) with A498; 41.1 µM (inactive) in the assay on CCRF-CEM; > 100 µM (inactive) in the assay on COLO 205; > 100 µM (inactive) in the assay with EKVX; above 100 µM in the assay on HCT-15; > 100 µM (inactive) in the assay with HOP-62. Moreover, the GI50 in the assay on Hs-578T was > 100 µM (inactive); in the assay with MDA-MB-435 it was > 100 µM (inactive); in the assay on MOLT-4, > 100 µM (inactive); in the assay on NCI-H226, 82.4 µM (inactive); in the assay with NCI-H23 it was > 100 µM (inactive); in the assay on NCI/ADR-RES it was > 100 µM (inactive). Further, the GI50 in the assay with RPMI-8226, in the assay with SK-MEL-2, with SK-OV-3, in the assay with SN12C, in the assay with SW-620 and in the assay on UACC-257 was > 100 µM (inactive) throughout.
For the molecule `Cc1cccc(/N=N/C(=N\NC(=O)c2cc(Cl)ccc2O)c2ccc(N(CCC#N)CCC#N)cc2C)c1`, the GI50 in the assay on CCRF-CEM is 8.79 µM (inactive); in the assay with COLO 205, 13.6 µM (inactive); in the assay on EKVX, 34.7 µM (inactive); with HCT-15, 27.7 µM; in the assay on HOP-62 it was 28.2 µM (inactive); with Hs-578T, 77.6 µM (inactive). In addition, the GI50 with MDA-MB-435 was 47.1 µM (inactive); in the assay on MOLT-4, 15.9 µM (inactive); in the assay with NCI-H226, 36 µM (inactive); with NCI-H23, 32.7 µM (inactive); in the assay on NCI/ADR-RES it was 45.1 µM (inactive); in the assay on RPMI-8226, 14.9 µM (inactive). For the same molecule, the GI50 in the assay with SK-MEL-2 was 29 µM (inactive); with SK-OV-3 it was 35.7 µM (inactive); in the assay with SN12C it was 24 µM (inactive); with SR it was 22.8 µM (inactive); in the assay with SW-620, 46.7 µM (inactive); with UACC-257 it was 30.7 µM (inactive).
Turning to `Cc1nn(C(=O)c2ccc(Cl)cc2)c2c1C(c1ccco1)SC(=N)N2` (stereo unspecified), the GI50 with CCRF-CEM was > 10 µM (inactive); in the assay on COLO 205 it was > 10 µM (inactive); in the assay on EKVX it was > 10 µM (inactive); in the assay on HCT-15, above 10 µM; in the assay on HOP-62, > 10 µM (inactive); with Hs-578T it was > 10 µM (inactive). Also, the GI50 in the assay on MDA-MB-435, with MOLT-4, in the assay with NCI-H226, with NCI-H23, in the assay with NCI/ADR-RES and in the assay with RPMI-8226 was > 10 µM (inactive) each time. Also, the GI50 with SK-MEL-2, in the assay on SK-OV-3, with SN12C, in the assay with SR, with SW-620 and in the assay on UACC-257 was > 10 µM (inactive) in each case.
With `Nc1nc(Cl)c2nnn(CC3CCC(CO)C3)c2n1` (stereo unspecified), the GI50 is > 100 µM (inactive) in the assay on A498; > 100 µM (inactive) in the assay with CCRF-CEM; > 100 µM (inactive) in the assay with COLO 205; > 100 µM (inactive) in the assay with EKVX; above 100 µM in the assay with HCT-15; > 100 µM (inactive) in the assay with HOP-62. The GI50 in the assay with Hs-578T, in the assay with MDA-MB-435, in the assay on NCI-H226, with NCI/ADR-RES, with RPMI-8226 and with SK-MEL-2 was > 100 µM (inactive) in each case. Moreover, the GI50 in the assay with SK-OV-3, in the assay on SN12C, in the assay with SW-620 and in the assay with UACC-257 was > 100 µM (inactive) throughout.
With `CCOC(=O)N1CCN(c2ccc3ccc(N)nc3n2)CC1`, the GI50 was 50.1 µM (inactive) in the assay on CCRF-CEM; > 100 µM (inactive) in the assay with COLO 205; > 100 µM (inactive) with EKVX; above 100 µM with HCT-15; > 100 µM (inactive) in the assay with HOP-62; > 100 µM (inactive) in the assay with Hs-578T. In addition, the GI50 in the assay on MDA-MB-435 is > 100 µM (inactive); with MOLT-4 it was 74.1 µM (inactive); in the assay on NCI-H226, > 100 µM (inactive); in the assay with NCI-H23, > 100 µM (inactive); in the assay on NCI/ADR-RES, > 100 µM (inactive); with RPMI-8226, > 100 µM (inactive). Besides, the GI50 in the assay with SK-MEL-2, in the assay with SK-OV-3, in the assay on SN12C, in the assay on SR, with SW-620 and with UACC-257 was > 100 µM (inactive) in each case.
Turning to `CCNc1nc(N)c(C(=O)c2cccs2)s1`, the GI50 in the assay with A498 was 31 µM (inactive); with COLO 205, 7.05 µM (inactive); in the assay on EKVX, 26.2 µM (inactive); in the assay with HCT-15 it was 14.9 µM; in the assay with HOP-62, 30.9 µM (inactive); in the assay with Hs-578T it was 38.1 µM (inactive). Also, the GI50 in the assay with MDA-MB-435 was 20.9 µM (inactive); in the assay on MOLT-4, 17.6 µM (inactive); in the assay with NCI-H226, 24.2 µM (inactive); in the assay with NCI-H23, 20.9 µM (inactive); in the assay with NCI/ADR-RES it was 35 µM (inactive); in the assay on SK-MEL-2, 16.5 µM (inactive). Also, the GI50 with SK-OV-3 was 36.4 µM (inactive); with SN12C, 30 µM (inactive); in the assay on SW-620 it was 8.59 µM (inactive); with UACC-257 it was 46.9 µM (inactive).
With `CC1=CC2(O)OC3(CC2=C(C)C)C(C)CCC13` (stereo unspecified), the GI50 in the assay on A498 is > 100 µM (inactive); with CCRF-CEM it was > 100 µM (inactive); in the assay with COLO 205, > 100 µM (inactive); with EKVX it was > 100 µM (inactive); in the assay with HCT-15 it was above 100 µM; in the assay with HOP-62, > 100 µM (inactive). Moreover, the GI50 in the assay with Hs-578T, in the assay with MDA-MB-435, with MOLT-4, with NCI-H226, in the assay on NCI-H23 and in the assay on NCI/ADR-RES was > 100 µM (inactive) in each case. Also, the GI50 with RPMI-8226, with SK-MEL-2, in the assay with SK-OV-3, with SN12C, in the assay with SW-620 and in the assay on UACC-257 was > 100 µM (inactive) throughout.
In the case of `Cc1ccc(/N=C2/SC(c3ccc(C)cc3)(c3ccc(C)cc3)c3ccccc32)cc1`, the GI50 in the assay on A498 was > 100 µM (inactive); in the assay with CCRF-CEM it was > 100 µM (inactive); in the assay on COLO 205, > 100 µM (inactive); with EKVX it was > 100 µM (inactive); in the assay with HCT-15, above 100 µM; with HOP-62, > 100 µM (inactive). Moreover, the GI50 with Hs-578T, in the assay with MDA-MB-435, with MOLT-4, with NCI-H226, with NCI-H23 and in the assay with NCI/ADR-RES was > 100 µM (inactive) throughout. The GI50 in the assay with RPMI-8226, with SK-MEL-2, in the assay on SK-OV-3, in the assay with SN12C, in the assay with SW-620 and in the assay on UACC-257 was > 100 µM (inactive) each time.
In the case of `[N-]=[N+]=NC1CC(n2ccc(N)nc2=O)OC1COP(=O)(O)OP(=O)(O)OP(=O)(O)O` (stereo unspecified), the GI50 in the assay with CCRF-CEM was > 100 µM (inactive); in the assay on COLO 205, > 100 µM (inactive); with EKVX it was > 100 µM (inactive); in the assay on HCT-15, above 100 µM; in the assay on HOP-62, > 100 µM (inactive); with Hs-578T, > 100 µM (inactive). Besides, the GI50 in the assay with MDA-MB-435, with MOLT-4, in the assay with NCI-H226, in the assay on NCI/ADR-RES, in the assay on RPMI-8226 and in the assay with SK-OV-3 was > 100 µM (inactive) each time. The GI50 in the assay on SN12C, with SR, with SW-620 and with UACC-257 was > 100 µM (inactive) throughout.
Take `Cc1cccc(-c2cc(O)c3cccnc3n2)c1`: the GI50 is 0.935 µM (active) in the assay with CCRF-CEM; 0.236 µM (active) with COLO 205; 2.34 µM (inactive) with EKVX; 0.299 µM with HCT-15; 17.6 µM (inactive) in the assay on HOP-62; 0.444 µM (active) with Hs-578T. Besides, the GI50 with MDA-MB-435 was 0.0298 µM (active); in the assay with MOLT-4 it was 0.902 µM (active); with NCI-H226 it was 4.44 µM (inactive); with NCI-H23 it was 2.79 µM (inactive); in the assay with NCI/ADR-RES it was 0.618 µM (active); in the assay on RPMI-8226, 0.679 µM (active). Also, the GI50 with SK-OV-3 was 0.569 µM (active); in the assay with SN12C it was 2.75 µM (inactive); in the assay on SR, 0.0946 µM (active); with SW-620, 0.431 µM (active).
